The test concerns the target Coagulation factor X (Homo sapiens, UniProt P00742). Nature of the test: Binding affinity was evaluated against Coagulation factor X.
Sequence of Coagulation factor X (P00742 41-179 limits assumed): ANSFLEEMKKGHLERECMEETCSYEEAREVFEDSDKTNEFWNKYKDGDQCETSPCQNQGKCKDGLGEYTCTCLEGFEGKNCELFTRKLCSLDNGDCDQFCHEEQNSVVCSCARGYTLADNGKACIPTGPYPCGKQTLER
Sequence of Coagulation factor X (P00742 235-488 limits assumed): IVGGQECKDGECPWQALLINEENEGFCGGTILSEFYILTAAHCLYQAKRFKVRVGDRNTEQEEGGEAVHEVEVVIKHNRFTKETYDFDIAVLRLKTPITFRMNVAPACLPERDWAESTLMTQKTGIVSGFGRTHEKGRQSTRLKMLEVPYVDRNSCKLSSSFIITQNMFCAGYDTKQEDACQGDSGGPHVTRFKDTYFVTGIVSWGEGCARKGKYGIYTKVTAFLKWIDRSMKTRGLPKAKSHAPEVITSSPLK
What is called Ki is a dissociation constant, usually derived from enzyme kinetics or from competition with a known ligand. Low readings indicate higher affinity, high ones lower affinity. For the compound `Cc1c(F)c(Oc2cccc(C(=N)N)c2)nc(N2CCN(c3ccco3)CC2)c1F`, the Ki is above 5 µM.
Under `CCOC(=O)C1CCCN(c2nc(Oc3cccc(C(=N)N)c3)c(F)c(C)c2F)C1` (stereo not drawn) stands above 5 µM; under `N=C(N)c1cccc(COc2ccccc2)c1`, 0.0068 µM; under `Cc1cccc(C)c1N1CCN(c2nc(Oc3cccc(C(=N)N)c3)c(F)c(C)c2F)CC1`, above 5 µM.
In the case of `Cc1c(F)c(NCCCN2CCCC2=O)nc(Oc2cccc(C(=N)N)c2)c1F` it was above 5 µM; in that of `Cc1c(F)c(Oc2cccc(C(=N)N)c2)nc(N2CCC(C)(c3ccccc3)CC2)c1F`, 0.56 µM; in that of `CC(=N)N1CCC(Oc2nc(Oc3cccc(C(=N)N)c3)c(F)c(C)c2F)C1` (stereo not drawn), above 5 µM.
Under `Cc1c(F)c(Oc2cccc(C(=N)N)c2)nc(N2CCN(CC(=O)N3CCOCC3)CC2)c1F` stands above 5 µM.
The compound `Cc1c(F)c(NC2CCCCC2)nc(Oc2cccc(C(=N)N)c2)c1F` gave an inhibitory constant (Ki) above 5 µM.
In the case of `CCCOCCNc1nc(Oc2cccc(C(=N)N)c2)c(F)c(C)c1F` it was above 5 µM.
In the case of `Cc1c(F)c(Oc2cccc(C(=N)N)c2)nc(OC2CCNC2)c1F` (stereo not drawn) it was above 5 µM.
In the case of `N=C(N)c1ccc(/C=C2/CCCC/C(=C/c3ccc(C(=N)N)cc3)C2=O)cc1` it was 0.013 µM.
`Cc1c(F)c(Oc2cccc(C(=N)N)c2)nc(N2CCC[C@H]2CO)c1F` yielded a Ki above 5 µM.
Under `Cc1c(F)c(Oc2cccc(C(=N)N)c2)nc(N2CCN(C)CC2)c1F` stands above 5 µM; under `Cc1c(F)c(Oc2cccc(C(=N)N)c2)nc(N2CCN(c3ccc4c(c3)OCO4)CC2)c1F`, above 5 µM; under `Cc1c(F)c(NCCN(C)C)nc(Oc2cccc(C(=N)N)c2)c1F`, above 5 µM.
Under `Cc1c(F)c(Oc2cccc(C(=N)N)c2)nc(N2CCN(C3CCCCC3)CC2)c1F` stands 0.495 µM; under `N=C(N)c1ccccc1` [BENZAMIDINE], 0.41 µM.
